Literature values, collected in patent US6187938A, “ω-amino acid derivatives, processes of their preparation and their use” (Bochemie, s.r.o., priority 1997, dated 2001).

Tested on: skin
Conditions: in presence of petrolatum; Stoughton, McClure 1983

Compound: CCCCCCCCCCCCN1CCCCCC1=O [laurocapram, 1-dodecylazacycloheptan-2-one]
- inhibition of permeation enhancing effect by paraffinic auxiliary substances (e.g., petrolatum): completely inhibit
